# According to PMC7872314, “Modeling Bioavailable Concentrations in Zebrafish Cell Lines and Embryos Increases the Correlation of Toxicity Potencies across Test Systems” (Environmental Science & Technology, 2020):
# Read-outs that look alike come from different tables or passages of the source.
# Key:
# [1] = tested on: ZF4 (fibroblasts) cell line; assay: MTS assay (MTS/BCA multiplex), NAD(P)H metabolism; type: cell-based, zebrafish (Danio rerio); conditions: Danio rerio, Fibroblast
# [2] = tested on: ZFL (hepatocytes) cell line; assay: cells; type: cell-based, zebrafish (Danio rerio); conditions: Danio rerio, Hepatocyte
# [3] = tested on: ZF4 (fibroblasts) cell line; assay: BCA assay (MTS/BCA multiplex), protein amount; type: cell-based, zebrafish (Danio rerio); conditions: Danio rerio, Fibroblast
# [4] = tested on: ZFL (hepatocytes) cell line; assay: cells; type: cell-based, zebrafish (Danio rerio); conditions: Danio rerio, Hepatocyte; remark: listed apart in the source
# [5] = tested on: ZF4 (fibroblasts) cell line; assay: ATP assay (ATP/LDH multiplex), ATP metabolism; type: cell-based, zebrafish (Danio rerio); conditions: Danio rerio, Fibroblast
# [6] = tested on: ZFL (hepatocytes) cell line; assay: cells; type: cell-based, zebrafish (Danio rerio); conditions: Danio rerio, Hepatocyte; remark: listed apart in the source
# [7] = tested on: ZF4 (fibroblasts) cell line; assay: alamarBlue (AB) endpoint of AB/CFDA/NR multiplex, cellular respiration; type: cell-based, zebrafish (Danio rerio); conditions: Danio rerio, Fibroblast
# [8] = tested on: ZFL (hepatocytes) cell line; assay: cells; type: cell-based, zebrafish (Danio rerio); conditions: Danio rerio, Hepatocyte; remark: listed apart in the source
# [9] = tested on: ZF4 (fibroblasts) cell line; assay: CFDA endpoint of AB/CFDA/NR multiplex, membrane stability; type: cell-based, zebrafish (Danio rerio); conditions: Danio rerio, Fibroblast
# [10] = tested on: ZFL (hepatocytes) cell line; assay: cells; type: cell-based, zebrafish (Danio rerio); conditions: Danio rerio, Hepatocyte; remark: listed apart in the source
# [11] = tested on: ZF4 (fibroblasts) cell line; assay: Neutral red, absorbance (NRa), AB/CFDA/NR multiplex, lysosome stability; type: cell-based, zebrafish (Danio rerio); conditions: Danio rerio, Fibroblast
# [12] = tested on: ZFL (hepatocytes) cell line; assay: cells; type: cell-based, zebrafish (Danio rerio); conditions: Danio rerio, Hepatocyte; remark: listed apart in the source
# [13] = tested on: ZF4 (fibroblasts) cell line; assay: Neutral red, fluorescence (NRf), AB/CFDA/NR multiplex, lysosome stability; type: cell-based, zebrafish (Danio rerio); conditions: Danio rerio, Fibroblast
# [14] = tested on: ZFL (hepatocytes) cell line; assay: cells; type: cell-based, zebrafish (Danio rerio); conditions: Danio rerio, Hepatocyte; remark: listed apart in the source
# [15] = tested on: zebrafish embryos; assay: animal or person; type: in vivo, zebrafish (Danio rerio); conditions: for EC50: Danio rerio
# [16] = tested on: ZF4 and ZFL cell lines; assay: Cytotoxicity assays, all endpoints, both cell lines (mean/range); type: cell-based, zebrafish (Danio rerio); conditions: 48 h
# [17] = tested on: zebrafish cell lines vs zebrafish embryo; assay: Potency ratios IC50;x/EC50;x (cytotoxicity assays vs mFET); parameters: species or system zebrafish (Danio rerio)
# [18] = tested on: zebrafish embryos; parameters: method as in earlier work; conditions: nominal, cited from earlier work
# [19] = ref Comptox, PubChem or DrugBank; cited from earlier work
structure (smiles),measurement,setting,value
"CC1(C)C(C=C(Cl)c2ccc(Cl)cc2)C1C(=O)OC(C#N)c1ccc(F)c(Oc2ccccc2)c1 (centres unmarked) [Flumethrin, flumethrin]",IC50,"[1]; MTS - ZF4, log10 of IC50, read-out: LogIC50 (converted)",83.1 µM
same,IC50,"[1]; MTS - ZF4, read-out: IC50",83.1 µM
same,IC50,"[1]; ZF4, 48 h exposure, nominal, log10, read-out: logIC50 (log10 IC50;nom) MTS (converted)",83.2 µM
same,IC50,"[1]; ZF4, 48 h exposure, nominal, read-out: IC50;nom MTS",83.1 µM
same,IC50,"[2]; MTS - ZFL, log10 of IC50, read-out: LogIC50 (converted)",414 µM
same,IC50,"[2]; MTS - ZFL, read-out: IC50",414 µM
same,IC50,"[2]; ZFL, 48 h exposure, nominal, log10, read-out: logIC50 (log10 IC50;nom) MTS (converted)",417 µM
same,IC50,"[2]; ZFL, 48 h exposure, nominal, read-out: IC50;nom MTS",414 µM
same,IC50,"[3]; BCA - ZF4, log10 of IC50, read-out: LogIC50 (converted)",42.1 µM
same,IC50,"[3]; BCA - ZF4, read-out: IC50",42.1 µM
same,IC50,"[3]; ZF4, 48 h exposure, nominal, log10, read-out: logIC50 (log10 IC50;nom) BCA (converted)",41.7 µM
same,IC50,"[3]; ZF4, 48 h exposure, nominal, read-out: IC50;nom BCA",42.1 µM
same,IC50,"[4]; BCA - ZFL, log10 of IC50, read-out: LogIC50 (converted)",6.13 mM
same,IC50,"[4]; BCA - ZFL, read-out: IC50",6.13 mM
same,IC50,"[4]; ZFL, 48 h exposure, nominal, log10, read-out: logIC50 (log10 IC50;nom) BCA (converted)",6.17 mM
same,IC50,"[4]; ZFL, 48 h exposure, nominal, read-out: IC50;nom BCA",6.13 mM
same,IC50,"[5]; ATP - ZF4, log10 of IC50, read-out: LogIC50 (converted)",317 µM
same,IC50,"[5]; ATP - ZF4, read-out: IC50",317 µM
same,IC50,"[5]; ZF4, 48 h exposure, nominal, log10, read-out: logIC50 (log10 IC50;nom) ATP (converted)",316 µM
same,IC50,"[5]; ZF4, 48 h exposure, nominal, read-out: IC50;nom ATP",317 µM
same,IC50,"[6]; ATP - ZFL, log10 of IC50, read-out: LogIC50 (converted)",441 µM
same,IC50,"[6]; ATP - ZFL, read-out: IC50",441 µM
same,IC50,"[6]; ZFL, 48 h exposure, nominal, log10, read-out: logIC50 (log10 IC50;nom) ATP (converted)",437 µM
same,IC50,"[6]; ZFL, 48 h exposure, nominal, read-out: IC50;nom ATP",441 µM
same,IC50,"[7]; AB - ZF4, log10 of IC50, read-out: LogIC50 (converted)",351 µM
same,IC50,"[7]; AB - ZF4, read-out: IC50",351 µM
same,IC50,"[7]; ZF4, 48 h exposure, nominal, log10, read-out: logIC50 (log10 IC50;nom) AB (converted)",347 µM
same,IC50,"[7]; ZF4, 48 h exposure, nominal, read-out: IC50;nom AB",351 µM
same,IC50,"[8]; AB - ZFL, log10 of IC50, read-out: LogIC50 (converted)",244 µM
same,IC50,"[8]; AB - ZFL, read-out: IC50",244 µM
same,IC50,"[8]; ZFL, 48 h exposure, nominal, log10, read-out: logIC50 (log10 IC50;nom) AB (converted)",245 µM
same,IC50,"[8]; ZFL, 48 h exposure, nominal, read-out: IC50;nom AB",244 µM
same,IC50,"[9]; CFDA - ZF4, log10 of IC50, read-out: LogIC50 (converted)",170 µM
same,IC50,"[9]; CFDA - ZF4, read-out: IC50",170 µM
same,IC50,"[9]; ZF4, 48 h exposure, nominal, log10, read-out: logIC50 (log10 IC50;nom) CFDA (converted)",170 µM
same,IC50,"[9]; ZF4, 48 h exposure, nominal, read-out: IC50;nom CFDA",170 µM
same,IC50,"[10]; CFDA - ZFL, log10 of IC50, read-out: LogIC50 (converted)",118 µM
same,IC50,"[10]; CFDA - ZFL, read-out: IC50",118 µM
same,IC50,"[10]; ZFL, 48 h exposure, nominal, log10, read-out: logIC50 (log10 IC50;nom) CFDA (converted)",117 µM
same,IC50,"[10]; ZFL, 48 h exposure, nominal, read-out: IC50;nom CFDA",118 µM
same,IC50,"[11]; NR-abs - ZF4, log10 of IC50, read-out: LogIC50 (converted)",104 µM
same,IC50,"[11]; NR-abs - ZF4, read-out: IC50",104 µM
same,IC50,"[11]; ZF4, 48 h exposure, nominal, log10, read-out: logIC50 (log10 IC50;nom) NRa (converted)",105 µM
same,IC50,"[11]; ZF4, 48 h exposure, nominal, read-out: IC50;nom NRa",104 µM
same,IC50,"[11]; ZF4 cell line, NRa endpoint, nominal, read-out: IC50;nom",53.1 µg/mL
same,IC50,"[12]; NR-abs - ZFL, log10 of IC50, read-out: LogIC50 (converted)",160 µM
same,IC50,"[12]; NR-abs - ZFL, read-out: IC50",160 µM
same,IC50,"[12]; ZFL, 48 h exposure, nominal, log10, read-out: logIC50 (log10 IC50;nom) NRa (converted)",158 µM
same,IC50,"[12]; ZFL, 48 h exposure, nominal, read-out: IC50;nom NRa",160 µM
same,IC50,"[13]; NR-fluo - ZF4, log10 of IC50, read-out: LogIC50 (converted)",213 µM
same,IC50,"[13]; NR-fluo - ZF4, read-out: IC50",213 µM
same,IC50,"[13]; ZF4, 48 h exposure, nominal, log10, read-out: logIC50 (log10 IC50;nom) NRf (converted)",214 µM
same,IC50,"[13]; ZF4, 48 h exposure, nominal, read-out: IC50;nom NRf",213 µM
same,IC50,"[14]; NR-fluo - ZFL, log10 of IC50, read-out: LogIC50 (converted)",159 µM
same,IC50,"[14]; NR-fluo - ZFL, read-out: IC50",159 µM
same,IC50,"[14]; ZFL, 48 h exposure, nominal, log10, read-out: logIC50 (log10 IC50;nom) NRf (converted)",158 µM
same,IC50,"[14]; ZFL, 48 h exposure, nominal, read-out: IC50;nom NRf",159 µM
same,difference in toxicity (EC50;nom) between 48 hpf and 144 hpf,[15]; 48 hpf time point less sensitive than 144 hpf,approximately the same
same,log EC50;nom (mFET),"[15]; 48 hpf, nominal, log10, listed as Flu",-6.562 M
same,EC50,"[15]; 48 hpf, nominal, log10, read-out: log EC50;nom (mFET) (converted)",275 nM
same,EC50,"[15]; 48 hpf, nominal, read-out: EC50;nom (embryo)",0.14 µg/mL
same,EC50,[15]; read-out: EC50 48hpf,274 nM
same,EC50,[15]; read-out: EC50;nom (mFET),274 nM
same,IC50,"[16]; Danio rerio, read-out: Mean log IC50nom, mean of all cytotoxicity endpoints (without LDH) in ZF4 and ZFL, 48 h, log10 (converted)",229 µM
same,Mean log IC50nom,"[16]; mean of all cytotoxicity endpoints (without LDH) in ZF4 and ZFL, log10, listed as Flu",-3.637 M
same,in vitro toxicity (IC50;free) higher than EC50;nom,[17]; ZF4 NRa endpoint vs embryo,10 fold
same,potency ratio IC50;nom/EC50;nom (median),"[17]; median over cytotoxicity endpoints, nominal, 48 h cells / 48 hpf mFET",698
same,difference in sensitivity between embryo (EC50;nom) and cells (IC50;nom),"[17]; nominal concentrations, higher potency in the mFET",two to three log-scales more sensitive in the mFET
same,"potency ratio IC50;nom/EC50;nom, BCA-ZFL endpoint","[17]; single endpoint BCA-ZFL, less sensitive in the cell-based assay","10,000 fold"
same,EC50,"[18]; 144 hpf, converted",216 nM
same,logEC50 144 hpf,[18]; log10,-6.667 M
same,Physiological charge,[19],0
same,logKoa,[19],11.7
same,logKow,[19],6.97
